Experimental data taken from US4994439A, “Transmembrane formulations for drug administration” (California Biotechnology Inc., priority 1989, dated 1991).

Legend:
[1] = Transport of insulin across rat nasal tissue (plasma insulin, delivery via the nares); format: in vivo; conditions: 5IU/kg insulin intranasal, FIG. 5
Procedure: Efficacy in transport of insulin and of human growth hormone across rat nasal tissue was evaluated. Male Sprague-Dawley rats (Simonsen, Gilroy, CA, 240-300 gm) were anesthetized by subcutaneous injection of Acepromazine (3 mg/kg) followed 10 minutes later by intraperitoneal injections of inactin (100 mg/kg) for experiments shown in FIGS. 4-6 or by intraperitoneal (IP) injection of sodium pentobarbital (65 mg/kg), with additional doses given intravenously as necessary for experiments shown in FIGS. 7-8. A trachea tube was inserted to assist breathing.
In FIGS. 4-6, insulin or hGH was delivered directly via the nares; no esophageal cannula was inserted; the test solution (50 ul) was delivered 1 cm into the nasal cavity using PE 10 tubing attached to a Hamilton syringe.
In all cases, blood samples (0.5 ml) were drawn from a catheter in the right jugular vein and diluted with heparinized saline. Plasma (300-400 ul) was separated and stored at 4° C. for less than 48 hours prior to analysis of growth hormone using an immunoradiometric assay (Tandem R, Hybritech, Inc, San Diego, Calif.) or of insulin using a radioimmunoassay (Micromedic, ICN Micromedic Systems, Horsham, Pa.). […] Estimations of area under the curve (AUC) of plots of plasma insulin or hGH concentration versus time were calculated using the trapezoidal rule.

[2] = Critical micellar concentration by rhodamine 6G method; format: physicochemical; conditions: for CMC expressed on a molar basis: for the mixture: total surfactant; for CMC (as percent w/v): rhodamine 6G method
Procedure: The CMC is not a single value, but a range of concentrations. Because the range is relatively narrow, a single concentration within this transition zone is defined as the CMC. The CMC for each individual molecule and for each mixture can be determined experimentally in variety of ways; that illustrated below is the rhodamine 6G method of Carey, M.C., et al J Colloid Interface Sci (1969) 31:382-396. In this method, a low concentration of rhodamine 6G is added as a probe in a series of dispersions or solutions of the material to be tested. Where the solute concentration is below the CMC the probe molecule has a lambdamax at 523 nm; above the CMC, the probe binds to the micelle, which causes the lambdamax to increase to approximately 532 nm. By plotting the wavelength of the maximum absorption of the rhodamine 6G probe as a function of concentration of test materials, two lines of differing slopes are obtained which intersect at the CMC. The value of the intersection is then taken as the value of the CMC for the particular dispersion.
When this procedure is conducted for solutions of STDHF, Solulan C-24, or a 1:1 mixture of these materials, the CMC values (as percent w/v) obtained are 0.14% for STDHF; 0.028% for Solulan C-24; and 0.012% for the mixture of the two--i.e., 0.006% STDHF plus 0.006% Solulan C-24. Thus, for the mixture of STDHF and Solulan C-24, the CMC for the mixture is lower than that for either component alone. These values establish minimum concentration levels needed for the invention composition, and also establish that the two components form mixed micelles. If there were two separate populations of micelles, the CMC as measured by the above-described method would be equal to that of Solulan C-24. The existence of mixed micelles can be verified with other data as described below.

[3] = Quasi-elastic light-scattering of micelles; format: physicochemical
Excerpt: Solulan C-24 forms micelles with a radius of 75 angstroms; STDHF forms micelles with a radius of 17 angstroms, and the mixture (1:1 w/w) forms micelles with a radius of 40 angstroms.

red blood cells = experiment: Red blood cell (RBC) lysis as a measure of toxicity; format: cell-based; conditions: FIG. 3
Procedure: Consistent results were obtained when red blood cell (RBC) lysis was evaluated as a measure of toxicity and SGDHF was used as the fusidate component. […] Thus, the addition of the detergent appears to protect against the lytic effect of the fusidate.

| time course of plasma insulin level [1] | CMC expressed on a molar basis [2] [mM] | CMC (as percent w/v) [2] [%] | micelle radius [3] [angstroms] | Compound | RBC lysis (red blood cells; concentration range of 0-0.3%) | RBC lysis (red blood cells; 0.3% concentration) [%] |
| --- | --- | --- | --- | --- | --- | --- |
| lower levels | 2.0 | 0.14 | 17 | CC(=O)O[C@H]1C[C@@]2(C)[C@@H](C[C@@H](O)[C@H]3[C@@]4(C)CC[C@@H](O)[C@@H](C)[C@@H]4CC[C@@]32C)/C1=C(\CCCC(C)C)C(=O)NCCS(=O)(=O)[O-].[Na+] [STDHF, sodium tauro-24,25-dihydrofusidate] |  |  |
| lower levels | 0.19 | 0.028 | 75 | polyoxyethylene-24-cholesterol ether [Solulan C-24] | low values of RBC lysis |  |
|  |  |  |  | sodium glyco-24,25-dihydrofusidate [SGDHF] |  | 100 |
